# Test results as given in patent US11440880B2, “Thalidomide analogs and methods of use” (The USA, as represented by the Secretary, Department of …, priority 2015, dated 2022).
# “Also recorded” adds a separate entry of the source.
# Tests used:
# [1] = system: nitrite levels in the culture media; experiment: Nitrite level (Griess Reagent System) in LPS-challenged RAW 264.7 cells; assay type: cell-based, mouse; design: key: NS=not significant; a “+” sign=anti-inflammatory or increased cell numbers; a “−” sign=cell toxicity or pro-inflammatory; conditions: LPS 30 or 60 ng/mL, 24 h
# Outline: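 RAW 264.7 cells pretreated 1 h with compound in DMSO vehicle, then challenged with LPS (30 or 60 ng/mL) for 24 h at 37° C. Conditioned-media nitrite by Griess (520 nm, sodium nitrite standard curve, 1.5 μM cutoff) in μM; mouse TNF-α by ELISA as pg/ml or % change from control.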
# [2] = system: PC3 cells (xenografted tumors); experiment: PC3 xenograft efficacy in SCID mice; assay type: in vivo; conditions: 10 mg/kg; for tumor burden: day 0 to day 24
# Source text: (§1) Compounds 29 and 86 were selected for in vivo efficacy studies of human prostate cancer. Mice positive for the severe combined immune deficieny (SCID) spontaneous mutation Prkdc^scid are deficient in functional T cells and B cells, have reduced levels of gamma globulins and lymphopenia (low white blood cell count). Due to their comprised immune system, SCID mice are amenable to xenogeneic grafts. Before starting the efficacy study, a maximum tolerated dose was established for each compound. Compound administration was by tail vein injection (IV) with a 27-gauge needle. A volume of 100 uL per 25 g of body weight was injected for each compound and dose. Compounds 29 and 86 were formulated in 12% DMSO and 88% TPGS (tocopherol polyethylene glycol succinate) in distilled sterile water. This formulation was well tolerated in vehicle control mice. The maximum tolerated dose was defined as the highest dose at which 100% of animals could tolerate treatment with mild or no toxicity for a minimum of one week of treatment. Initially, each compound was administered 3× per week to five mice per group, at 5 and 10 mg/kg. Each dose level was monitored for at least one week. […] Animals were weighed daily during the treatment courses. […] The selected dose for further experimentation was therefore 10 mg/kg.
# When the tumors of SCID mice xenografted with PC3 cells were palpable, mice were dosed with 10 mg/kg of compound 29 or compound 86, or given the vehicle alone. From day 0 to day 24, the tumor sizes in vehicle-treated animals increased by 301.33% (FIG. 15, tumor size=401.33%±35.98%).
# [3] = system: human saphenous vein sections (microvessel outgrowth); experiment: Human saphenous vein assay of angiogenesis (ex vivo); assay type: cell-based; conditions: for vessel outgrowth: 10 days of incubation; for inhibition of vessel outgrowth: in words
# Method: The saphenous vein was cleaned of subcutaneous tissue and embedded in Matrigel® matrix as previously described. After 10 days of incubation, the transverse sections of the veins were imaged. The outgrowth between the vehicle and no treatment (media) control was equivalent (106.65%±20.14, n=2 and 103.35%±4.06, n=2 respectively; FIGS. 13A and 13B).
# [4] = Precipitation of the IV formulation; assay type: physicochemical; conditions: 20 mg/kg; 12% DMSO and 88% TPGS in distilled sterile water
# Source text: as §1
# [5] = Maximum tolerated dose in SCID mice; assay type: in vivo; conditions: 3× per week; for deaths / drug-related toxicity / weight loss: 5 mg/kg and 10 mg/kg IV; for MTD: SCID, mouse, in vivo, IV, read-out: selected dose from the maximum tolerated dose study
# Source text: as §1
# [6] = system: 59 cancer cell lines; experiment: One-dose anti-cancer screening in 59 cancer cell lines; assay type: cell-based; conditions: 1×10^−5 M; with the exception of leukemic cell lines
# Source text: As well as being immunomodulatory and anti-angiogenic, lenalidomide and pomalidomide are directly cytotoxic to cancer cells. […] Compounds 29 and 86 were screened at a concentration of 1×10^−5 M (FIGS. 11 and 12, respectively). Calculated values from 0-100 indicate growth inhibition relative to a no-drug control, and values less than 0 indicate lethality, relative to the number of cells at time zero. A value of 100 means no growth inhibition. A value of 40 means 60% growth inhibition. A value of 0 means no net growth over the course of the experiment. A value of −40 means 40% lethality. A value of −100 means all cells are dead.
# [7] = system: chicken embryos; experiment: Chicken embryo development / teratogenicity; assay type: in vivo, white leghorn chicken; conditions: in words; applied at HH stage 17-18
# Method: Chicken Embryology: Fertilized white leghorn chicken embryos were incubated at 38° C. and staged according to Hamburger and Hamilton (HH) stages of development (1951). Embryos were tested at HH stage 17-18 (day 2.5). Following membrane removal, test compounds or vehicle control solutions were applied globally over the embryo. The eggs were sealed and the development of the embryos was monitored up to HH stage 30 (E9).
# Compounds of interest were screened in chicken embryos (FIGS. 7I-7P).
# Concentrations used in the WT zebrafish and chicken embryo assays to assess for teratogenesis, were equal to or higher than those utilized in the fil1:EGFP and mpo:GFP zebrafish assays
Structure (SMILES),Nitrite ([1]; 1 μM),Nitrite ([1]; 10 μM),Nitrite ([1]; 30 μM),Nitrite ([1]; 60 μM),Nitrite ([1]; 100 μM),tumor burden [2],vessel outgrowth ([3]; 5 μM),vessel outgrowth ([3]; 10 μM),vessel outgrowth ([3]; 50 μM),vessel outgrowth ([3]; 100 μM),"inhibition of vessel outgrowth ([3]; 10 μM (FIGS. 13D, 13E))",behaviour of the compound in the dosing solution [4],deaths / drug-related toxicity [5],weight loss [5],MTD [5] [mg/kg],activity on cell growth / cytotoxicity [6],effect on development / mortality of chicken embryos [7],tumor size versus vehicle treated mice ([2]; p=0.07),inhibition of vessel outgrowth ([3]; all concentrations)
O=C1CCC(N2C(=O)c3cccc([N+](=O)[O-])c3C2=O)C(=O)N1 (stereo not shown) [Compound 5],NS,NS,NS,NS,NS,–,–,–,–,–,–,–,–,–,–,–,–,–,–
"O=C1NC(=S)CCC1N1C(=O)c2cccc([N+](=O)[O-])c2C1=O (stereo not shown) [Compound 7, 2-(2-Oxo-6-thioxo-3-piperidinyl)-4-nitro-1H-isoindole-1,3(2H)-dione]",NS,NS,+,+,+,–,–,–,–,–,–,–,–,–,–,–,–,–,–
Nc1cccc2c1CN(C1CCC(=O)NC1=O)C2=S (stereo not shown) [Compound 29],–,–,–,–,–,No reduction in tumor burden,155.12%±23.69,168.06%±14.87,102.38%±16.78,62.53%±13.69,no inhibition,precipitate in the solution,no animals died or needed to be euthanized due to drug-related toxicity,no significant weight loss,10,very little activity,–,–,–
"Nc1cccc2c1CN(C13CC4CC(CC(C4)C1)C3)C2=O [Compound 77, 2,3-Dihydro-4-amino-2-(tricyclo[3.3.1.1^3,7]dec-1-yl)-1H-isoindol-1-one]",NS,NS,NS,–,–,–,–,–,–,–,–,–,–,–,–,–,–,–,–
CC(N1Cc2c(N)cccc2C1=O)C12CC3CC(CC(C3)C1)C2 (stereo not shown) [Compound 81],NS,NS,+,–,–,–,–,–,–,–,–,–,–,–,–,–,hemorrhaging throughout the body and head; also recorded: growth reduction and hemorrhaging throughout the head,–,–
"O=C1c2ccccc2CN1C12CC3CC(CC(O)(C3)C1)C2 [Compound 86, 2,3-Dihydro-2-(tricyclo[3.3.1.1^3,7]dec-1-hydroxy-3-yl)-1H-isoindol-1-one]",NS,NS,NS,–,–,No reduction in tumor burden,–,–,–,–,vastly reduced outgrowth,precipitate in the solution,no animals died or needed to be euthanized due to drug-related toxicity,no significant weight loss,10,very little activity,–,trend to separate,inhibit outgrowth at all concentrations
